Assay results taken from US4200573A, “Derivatives of 3-carboxyrifamycin S and SV and process for their preparation” (Alfa Farmaceutici, S.p.A., priority 1977, dated 1980).
≈ marks a conversion by molar mass, not a printed value. Entries after “also recorded” stand apart in the source; their conditions may differ.

Key:
St. Aureus 209 P = experiment: Minimal inhibiting concentration (MIC), in vitro antibacterial activity, St. Aureus 209 P; assay type: cell-based; details: Staphylococcus aureus
Source text: (§1) The derivatives of 3-carboxyrifamycins S and SV according to the present invention have an antibacterial activity in vitro as shown by the data in the examples where are reported the minimal inhibiting concentrations (MIC) expressed in mcg/ml against different patogenic microorganisms.

Klebsiella Ottaviani = experiment: Minimal inhibiting concentration (MIC), in vitro antibacterial activity, Klebsiella Ottaviani; assay type: cell-based; details: read-out: Minimal inhibiting concentration (MIC)
Source text: as §1

Salmonella p typhi B = experiment: Minimal inhibiting concentration (MIC), in vitro antibacterial activity, Salmonella p typhi B; assay type: cell-based; details: read-out: Minimal inhibiting concentration (MIC)
Source text: as §1

E. Coli ML/35 = experiment: Minimal inhibiting concentration (MIC), in vitro antibacterial activity, E. Coli ML/35; assay type: cell-based; details: Escherichia coli
Source text: as §1

[1] = chemical stability (observation); assay type: physicochemical

Compound	MIC (St. Aureus 209 P) [µg/mL]	MIC (Klebsiella Ottaviani) [µg/mL]	MIC (Salmonella p typhi B) [µg/mL]	MIC (E. Coli ML/35) [µg/mL]	stability [1]
CO[C@H]1/C=C/O[C@@]2(C)Oc3c(C)c(O)c4c(c3C2=O)C(=O)C(C(=O)N2CCN(C)CC2)=C(NC(=O)/C(C)=C\C=C\[C@H](C)[C@H](O)[C@@H](C)[C@@H](O)[C@@H](C)[C@H](OC(C)=O)[C@@H]1C)C4=O [Example 8, 3-(N-methyl N'-piperazinylcarbonyl)rifamycin S]	0.1 to 0.25 (≈ 0.122 to 0.304 µM)	> 50	> 50	> 50	
CO[C@H]1/C=C/O[C@@]2(C)Oc3c(C)c(O)c4c(c3C2=O)C(=O)C(C(=O)N(C)C)=C(NC(=O)/C(C)=C\C=C\[C@H](C)[C@H](O)[C@@H](C)[C@@H](O)[C@@H](C)[C@H](OC(C)=O)[C@@H]1C)C4=O [Example 13, 3-(N,N dimethylaminocarbonyl)rifamycin S]		> 50	> 50	> 50	
3-carboxyrifamycin					instable product and gives very easily rise to reaction of decarboxylation; also recorded: unstable product which easily decomposes
CO[C@H]1/C=C/O[C@@]2(C)Oc3c(C)c(O)c4c(c3C2=O)C(=O)C(C(=O)NN(C)C)=C(NC(=O)/C(C)=C\C=C\[C@H](C)[C@H](O)[C@@H](C)[C@@H](O)[C@@H](C)[C@H](OC(C)=O)[C@@H]1C)C4=O [Example 10, 3-(NN-dimethyl N-hydrazinocarbonyl)rifamycin S]		> 50	> 50	> 50	
COC(=O)C1=C2NC(=O)/C(C)=C\C=C\[C@H](C)[C@H](O)[C@@H](C)[C@@H](O)[C@@H](C)[C@H](OC(C)=O)[C@H](C)[C@@H](OC)/C=C/O[C@@]3(C)Oc4c(C)c(O)c(c(c4C3=O)C1=O)C2=O [Example 6, 3-(carbomethoxy)rifamycin S]	0.05 to 0.1 (≈ 0.0663 to 0.133 µM)	25 to 50 (≈ 33.2 to 66.3 µM)	> 50	25 to 50 (≈ 33.2 to 66.3 µM)	
CO[C@H]1/C=C/O[C@@]2(C)Oc3c(C)c(O)c4c(c3C2=O)C(=O)C(C(=O)OCC(O)CO)=C(NC(=O)/C(C)=C\C=C\[C@H](C)[C@H](O)[C@@H](C)[C@@H](O)[C@@H](C)[C@H](OC(C)=O)[C@@H]1C)C4=O (some centres unmarked) [Example 12, 3-(1 glyceroxycarbonyl)rifamycin S]	~0.5 (≈ 0.614 µM)	> 100	> 100	> 100	
CO[C@H]1/C=C/O[C@@]2(C)Oc3c(C)c(O)c4c(c3C2=O)C(=O)C(C(=O)N(C)N2CCCCC2)=C(NC(=O)/C(C)=C\C=C\[C@H](C)[C@H](O)[C@@H](C)[C@@H](O)[C@@H](C)[C@H](OC(C)=O)[C@@H]1C)C4=O [Example 14, 3-((N-(N'-piperidinyl)N-methyl)aminocarbonyl)rifamycin S]	~0.03 (≈ 0.0359 µM)	> 50	> 50	> 50	
